Results reported in US12590106B2, “Spiromacrocyclic orexin 2 receptor agonists” (H. Lundbeck A/S, priority 2023, dated 2026).

Target: T1, human Ox2R (Homo sapiens, UniProt O43614)
T1 construct: The gene encoding hOx2R was subcloned into the expression plasmid pcDNA5/FRT/TO; expressed in transfected cells; host or cells: CHO Flp-In cells (pcDNA5/FRT/TO with pOG44 Flp recombinase vector, hygromycin B selection)
T1 sequence (O43614 1-444): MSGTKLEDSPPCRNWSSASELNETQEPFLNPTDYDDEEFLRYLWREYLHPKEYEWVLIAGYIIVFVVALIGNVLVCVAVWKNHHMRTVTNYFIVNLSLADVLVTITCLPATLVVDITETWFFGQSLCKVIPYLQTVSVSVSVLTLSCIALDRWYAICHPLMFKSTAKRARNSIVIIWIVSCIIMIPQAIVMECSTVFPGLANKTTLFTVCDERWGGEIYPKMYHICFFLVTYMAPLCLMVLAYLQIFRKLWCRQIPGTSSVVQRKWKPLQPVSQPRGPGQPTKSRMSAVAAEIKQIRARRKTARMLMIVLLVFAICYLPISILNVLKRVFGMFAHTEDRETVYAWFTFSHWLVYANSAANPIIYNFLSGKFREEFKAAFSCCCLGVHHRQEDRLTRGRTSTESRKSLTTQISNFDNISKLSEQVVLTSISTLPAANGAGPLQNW
Experiment: Measurement of OX2R agonist activity (cell-based calcium release assay)
Conditions: hOx2R-CHO Flp-In cells, n≥2 tests; for EC50: intracellular calcium, read-out: EC50; for Emax: normalized to assay buffer (0%) and 10 μM Danavorexton (100%), read-out: Emax (%)
Excerpt: Measurement of OX2R Agonist Activity
The Ox2R has a broad signaling profile and couple to a range of different Gα-proteins. The cell-based calcium release assay is primarily assessing signaling through the Gαq signaling pathway, which promotes calcium mobilization via inositol triphosphate production upon activation of Ox2R.
A CHO Flp-In cell-line stably expressing the human Ox2R (hOx2R-CHO Flp-In) was established as follows: The gene encoding hOx2R was subcloned into the expression plasmid pcDNA5/FRT/TO and then transfected into CHO Flp-In cells together with the Flp recombinase vector, pOG44. Cells were cultured in growth medium: Ham's F12 (Gibco), 10% fetal bovine serum (Gibco) and 100 U/mL penicillin-streptomycin (Gibco) supplemented with hygromycin B (Thermo Fisher Scientific) as selection marker at 37° C. in the presence of 5% CO2.
To prepare the hOx2R-CHO FlpIn cells for calcium release assay, the cells were suspended in growth medium and seeded in black, clear-bottomed 384-well plates (Corning) at 10,000 cells/well. The plated cells were grown overnight at 37° C. and 5% CO2. The following day, the media was removed, and the cells were incubated with assay buffer (HBSS with 20 mM HEPES, pH 7.4) containing 2.5 mM probenecid (Thermo Fisher Scientific), 10 mM CaCl2, 0.1% pluronic F68 (Gibco) and 1× calcium-4 dye (Molecular Devices) for 1 h at 37° C. and 5% CO2. After incubation, cells were allowed to equilibrate at room temperature for 15 minutes and then loaded into FDSS7000Ex system (Hamamatsu Photonics) together with a plate containing test compounds serially diluted in assay buffer. Cells were stimulated with test compounds (online injection) and the agonist activity was determined as an increase in intracellular calcium concentration measured from the ratio of fluorescence emission at 542 nm by excitation at 480 nm. The agonist response for each applied concentration was assessed as the ratio: maximum fluorescence/average pre-stimulated fluorescence and was normalized to responses from assay buffer alone (0% response) and 10 μM Danavorexton (100% response). EC50 and Emax values were calculated from concentration-response curves by using Genedata Screener software.

| Structure (SMILES) | EC50 | Emax |
| --- | --- | --- |
| CS(=O)(=O)N[C@H]1CC[C@@]2(Cc3ccc(F)c(c3)-c3cccc(F)c3OCC3=CN=C2O3)C1 [Example 7, N-[(1′S,14R)-6,19-difluorospiro[8,21-dioxa-12-azatetracyclo[14.3.1.110,13.02,7]henicosa-1(19),2,4,6,10,12,16(20),17-octaene-14,3′-cyclopentane]-1′-yl]methanesulfonamide] | 21 nM | 99% |
| Cc1ccc2cc1-c1cccc(F)c1OCc1coc(n1)[C@]1(CC[C@H](NS(C)(=O)=O)C1)C2 [Example 22, N-[(1′S,14R)-6-fluoro-19-methyl-spiro[8,12-dioxa-21-azatetracyclo[14.3.1.110,13.02,7]henicosa-1(19),2,4,6,10,13(21),16(20),17-octaene-14,3′-cyclopentane]-1′-yl]methanesulfonamide] | 0.82 nM | 96% |
| CS(=O)(=O)N[C@H]1CC[C@@]2(Cc3cc(ccc3F)-c3cccc(F)c3OCc3coc2n3)C1 [Example 17, N-[(1′S,14R)-6,17-difluorospiro[8,12-dioxa-21-azatetracyclo[14.3.1.110,13.02,7]henicosa-1(19),2,4,6,10,13(21),16(20),17-octaene-14,3′-cyclopentane]-1′-yl]methanesulfonamide] | 0.22 nM | 96% |
| Cc1oc2nc1COc1ccccc1-c1cc(ccc1F)C[C@@]21CC[C@H](NS(C)(=O)=O)C1 [Example 26, N-[(1′S,14R)-19-fluoro-11-methyl-spiro[8,12-dioxa-21-azatetracyclo[14.3.1.110,13.02,7]henicosa-1(19),2,4,6,10,13(21),16(20),17-octaene-14,3′-cyclopentane]-1′-yl]methanesulfonamide] | 0.19 nM | 95% |
| CS(=O)(=O)N[C@H]1CC[C@@]2(Cc3cc(ccc3F)-c3ccc(F)c(F)c3OCc3coc2n3)C1 [Example 28, N-[(1′S,14R)-5,6,17-trifluorospiro[8,12-dioxa-21-azatetracyclo[14.3.1.110,13.02,7]henicosa-1(19),2,4,6,10,13(21),16(20),17-octaene-14,3′-cyclopentane]-1′-yl]methanesulfonamide] | 6 nM | 99% |
| CNS(=O)(=O)N[C@H]1CC[C@@]2(Cc3ccc(F)c(c3)-c3ccccc3OCc3coc2n3)C1 [Example 12, (1′S,14R)-19-fluoro-N-(methylsulfamoyl)spiro[8,12-dioxa-21-azatetracyclo[14.3.1.110,13.02,7]henicosa-1(19),2,4,6,10,13(21),16(20),17-octaene-14,3′-cyclopentane]-1′-amine] | 0.19 nM | 100% |
| O=S(=O)(N[C@H]1CC[C@@]2(Cc3ccc(F)c(c3)-c3ccc(F)c(F)c3OCc3coc2n3)C1)C1CC1 [Example 34, N-[(1′S,14R)-5,6,19-trifluorospiro[8,12-dioxa-21-azatetracyclo[14.3.1.110,13.02,7]henicosa-1(19),2,4,6,10,13(21),16(20),17-octaene-14,3′-cyclopentane]-1′-yl]cyclopropanesulfonamide] | 0.8 nM | 98% |
| CS(=O)(=O)N[C@H]1CC[C@@]2(Cc3cc(ccc3F)-c3ccccc3OCc3coc2n3)C1 [Example 10, N-[(1′S,14R)-17-fluorospiro[8,12-dioxa-21-azatetracyclo[14.3.1.110,13.02,7]henicosa-1(19),2,4,6,10,13(21),16(20),17-octaene-14,3′-cyclopentane]-1′-yl]methanesulfonamide] | 1.5 nM | 100% |

Continued, values first:

| EC50 | Emax | Structure (SMILES) |
| --- | --- | --- |
| 0.39 nM | 96% | CS(=O)(=O)N[C@H]1CC[C@]2(CC1)Cc1ccc(F)c(c1)-c1cccc(F)c1OCc1coc2n1 [Example 97, trans-N-(6,19-difluorospiro[8,12-dioxa-21-azatetracyclo[14.3.1.110,13.02,7]henicosa-1(19),2,4,6,10,13(21),16(20),17-octaene-14,4′-cyclohexane]-1′-yl)methanesulfonamide] |
| 0.69 nM | 100% | CS(=O)(=O)N[C@H]1CC[C@@]2(CO[C@H]3CC[C@H](CC3)c3cccnc3OCc3coc2n3)C1 [Example 43, N-[(1s,1′S,14R,17s)-spiro[8,12,16-trioxa-6,22-diazatetracyclo[15.2.2.110,13.02,7]docosa-2,4,6,10,13(22)-pentaene-14,3′-cyclopentane]-1′-yl]methanesulfonamide] |
| 3.7 nM | 110% | C[C@@H]1Oc2ccccc2-c2cccc(c2)C[C@@]2(CC[C@H](NS(C)(=O)=O)C2)c2nccc1n2 (single isomer, unassigned) [Example 89, N-[(1′S,9S*,15R)-9-methylspiro[8-oxa-13,22-diazatetracyclo[15.3.1.110,14.02,7]docosa-1(21),2,4,6,10,12,14(22),17,19-nonaene-15,3′-cyclopentane]-1′-yl]methanesulfonamide] |
| 0.98 nM | 96% | CS(=O)(=O)N[C@H]1CC[C@@]2(Cc3cc(c(F)cc3F)-c3cccc(F)c3OCc3nc2ns3)C1 [Example 111, N-[(1′S,14R)-6,17,19-trifluorospiro[8-oxa-11-thia-12,21-diazatetracyclo[14.3.1.110,13.02,7]henicosa-1(19),2,4,6,10(21),12,16(20),17-octaene-14,3′-cyclopentane]-1′-yl]methanesulfonamide] |
| 1600 nM | 88% | CC1Oc2ccccc2-c2cccc(c2)C[C@@]2(CC[C@H](NS(C)(=O)=O)C2)c2nccc1n2 (single isomer, unassigned) [Example 88, N-[(1′S,9R*,15R)-9-methylspiro[8-oxa-13,22-diazatetracyclo[15.3.1.110,14.02,7]docosa-1(21),2,4,6,10,12,14(22),17,19-nonaene-15,3′-cyclopentane]-1′-yl]methanesulfonamide] |
| 1.4 nM | 99% | CS(=O)(=O)NC1CCC2(C1)c1nc(co1)COc1c(F)cccc1-c1cc(ccc1F)C2F (single isomer, unassigned) [Example 77, N-[(1′S,14R,15S or 15R)-6,15,19-trifluorospiro[8,12-dioxa-21-azatetracyclo[14.3.1.110,13.02,7]henicosa-1(19),2,4,6,10,13(21),16(20),17-octaene-14,3′-cyclopentane]-1′-yl]methanesulfonamide] |
| 0.34 nM | 97% | CS(=O)(=O)N[C@H]1CC[C@@]2(Cc3ccc(F)c(c3)-c3ccccc3OCc3coc2n3)C1 [Example 45, N-[(1′S,14R)-19-fluorospiro[8,12-dioxa-21-azatetracyclo[14.3.1.110,13.02,7]henicosa-1(19),2,4,6,10,13(21),16(20),17-octaene-14,3′-cyclopentane]-1′-yl]methanesulfonamide] |
| 0.068 nM | 100% | Cn1cc2c(n1)OCc1coc(n1)[C@]1(CC[C@H](NS(C)(=O)=O)C1)Cc1ccc(F)c-2c1 [Example 81, N-[(1′S,13R)-18-fluoro-4-methyl-spiro[7,11-dioxa-4,5,20-triazatetracyclo[13.3.1.19,12.02,6]icosa-1(18),2,5,9,12(20),15(19),16-heptaene-13,3′-cyclopentane]-1′-yl]methanesulfonamide] |
| 1.4 nM | 100% | CCS(=O)(=O)N[C@H]1CC[C@@]2(Cc3ccc(F)c(c3)-c3ccc(F)c(F)c3OCc3coc2n3)C1 [Example 35, N-[(1′S,14R)-5,6,19-trifluorospiro[8,12-dioxa-21-azatetracyclo[14.3.1.110,13.02,7]henicosa-1(19),2,4,6,10,13(21),16(20),17-octaene-14,3′-cyclopentane]-1′-yl]ethanesulfonamide] |
| 2000 nM | 94% | CS(=O)(=O)N[C@H]1CC[C@@]2(Cc3cc(ccn3)-c3ccccc3OCc3coc2n3)C1 [Example 49, N-[(1′S,14S)-spiro[8,12-dioxa-17,21-diazatetracyclo[14.3.1.110,13.02,7]henicosa-1(20),2,4,6,10,13(21),16,18-octaene-14,3′-cyclopentane]-1′-yl]methanesulfonamide] |
